Data taken from paper PMC7002685, “Inhibition of vascular calcification by inositol phosphates derivatized with ethylene glycol oligomers” (Nature Communications, 2020).

Columns and labels:
[1] = Serum PTH and FGF-23 in adenine model; assay type: in vivo, rat
Text: However, clearly the bone mineralization may be affected by the mode of action. The effects of the compound on the bone is not sufficiently investigated, and this limitation not sufficiently discussed, since similar to the adenin model, CKD patients may be the prime patient population for treatment. The bone structure should be documented by µCT. Is there an effect of the compound on the mechanical properties? Am I missing the effects of the compound on bone in healthy animals – this would seem decisive?
In response to the reviewer’s comment we investigated the (3D) bone structure of vehicle and (OEG2)2-IP4 treated CKD animals by µCT analysis and compared the results to that of bone samples from control (non-CKD) male Wistar rats of the same age. […]
because of (1) ethical considerations (aiming to limit the number of animals), (2) the primary end-point of the study was to evaluate the effect of (OEG2)2-IP4 on the development of vascular calcification, which was of no relevance for control (non-CKD) animals as they do not develop vascular calcification. […]
In response to the reviewer’s comment we measured concentrations of PTH and FGF-23 in the serum of CKD animals of vehicle and (OEG2)2-IP4 groups both at baseline and at sacrifice. […]

Potassium Channel [KATP] = experiment: Off-target 265600; assay type: binding, Hamster; settings: 10 µM
Experimental: (§1) The potential off-target activity of 10 µM (OEG2)2-IP4 was assessed against a panel of 87 enzymes, receptors, or ion channels that are used in standard safety pharmacology screens.
(§2) 3.2. Off-target screening assay
The experiments were conducted by a contract research organization (Eurofins Panlabs Discovery
Services Taiwan, Ltd.) and details on the respective assays can be retrieved via the catalog number
provided in Supplementary Table 11 from the company’s webpage
(§3) (https://www.eurofinsdiscoveryservices.com/). […]

Tachykinin NK1 = target: T1, Tachykinin NK1 (Homo sapiens, UniProt P25103); experiment: Off-target 255520; assay type: binding
T1 construct: purchased Eurofins Panlabs Discovery Services Taiwan, Ltd
Experimental: as §1, §2
The experiments were conducted by a contract research organization (Eurofins Panlabs Discovery Services Taiwan, Ltd.) and details on the respective assays can be retrieved via the catalog number provided in Supplementary Table 11 from the company’s webpage
as §3
At sacrifice the left tibia of animals of the rat model with dietary adenine/high-phosphate-induced uremia and VC was collected, fixed with 70% v/v EtOH and embedded in methyl methacrylate. The trabecular bone compartment is known to be the most metabolic active i.e. actively re-structured bone compartment in CKD. Therefore, histomorphometric and micro-computed tomography (µCT) analysis of bone was performed on the trabecular compartment. Tibial sections were Goldner-stained for histomorphometric analysis of the proximal metaphysis using the AxioVision Release 4.5 software, as […]
described previously5. […]

T1 sequence (P25103 whole entry): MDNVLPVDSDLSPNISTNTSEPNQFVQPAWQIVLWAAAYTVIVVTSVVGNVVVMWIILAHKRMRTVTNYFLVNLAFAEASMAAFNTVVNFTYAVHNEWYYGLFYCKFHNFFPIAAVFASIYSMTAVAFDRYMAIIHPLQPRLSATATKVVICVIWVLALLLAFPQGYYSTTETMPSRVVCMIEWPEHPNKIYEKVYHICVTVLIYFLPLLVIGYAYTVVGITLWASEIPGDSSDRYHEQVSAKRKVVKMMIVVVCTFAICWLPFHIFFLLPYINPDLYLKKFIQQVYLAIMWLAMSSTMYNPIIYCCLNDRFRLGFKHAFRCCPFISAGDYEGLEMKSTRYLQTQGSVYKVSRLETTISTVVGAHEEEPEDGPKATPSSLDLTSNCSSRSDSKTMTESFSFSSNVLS

Structure (SMILES): COCCOCCO[C@@H]1[C@@H](OP(=O)(O)O)[C@H](OCCOCCOC)[C@@H](OP(=O)(O)O)[C@@H](OP(=O)(O)O)[C@H]1OP(=O)(O)O [(OEG2)2-IP4, 4,6-Di-O-(methoxy-diethyleneglycol)-myo-inositol-1,2,3,5-tetrakis(phosphate)]
- serum PTH levels ([1]; 5, 15, 50 mg/kg): did not differ between treatment groups
- serum FGF-23 compared to vehicle ([1]; lowest (5 mg/kg) dose): significantly higher
- % Inhibition (Potassium Channel [KATP]): 14%
- inhibition at 10 µM (Tachykinin NK1): -14%
